Laboratory results reported in PubChem BioAssay AID1053172 (The Scripps Research Institute Molecular Screening Center, 2014).
Active and inactive are the calls of the source. How the calls were made is not given here.

Biological target: HIV-1 integrase / human LEDGF/p75 complex
Test: inhibitors of HIV-1 IN-LEDGF/p75 DNA integration, dose response, biochemical, TR-FRET (AID 1053172)

Compound	IC50
Cc1cc2nc3ccc(N(C)C)cc3nc2cc1N	> 36600 nM (inactive)
C/C(=N\NC(=O)c1cc(O)ccc1O)c1cccc(NC(=O)c2ccc(Cl)cc2)c1	inactive
O=c1cc(-c2ccc(O)cc2)oc2cc(O)c(C3OC(CO)C(O)C(O)C3O)c(O)c12 (stereo not given)	5960 nM
Oc1ccc(C=Nc2cccc3ncccc23)c(O)c1	> 36500 nM (inactive)
Cc1cc(=O)n2[nH]c(-c3ccsc3-n3c(C)ccc3C)cc2n1	inactive
NC(=O)c1ccc(N=Cc2c(O)n(Cc3ccco3)c(=O)[nH]c2=O)cc1	inactive
O=C(Nc1nc(-c2ccco2)c(-c2ccco2)s1)C1CC(=O)N(c2ccc3c(c2)OCCO3)C1 (stereo not given)	inactive
O=[N+]([O-])c1ccccc1NC(=S)N/N=C/c1ccc(O)c(O)c1	2510 nM
O=C(O)CC(C(=O)O)N1C(=O)/C(=C/C=C/c2ccco2)SC1=S (stereo not given)	377 nM
CN(C)c1ccc(O)c2c1CC1CC3[C@@H](N(C)C)C(=O)C(C(N)=O)=C(O)[C@]3(O)C(=O)C1=C2O (stereo not given in full)	3740 nM
O=C(CCN1C(=O)/C(=C/c2ccco2)SC1=S)Nc1ccc(C(=O)O)c(O)c1	inactive
COc1ccc(/C=C/C(=O)N2CCCc3ccccc32)cc1	> 36600 nM (inactive)
N#C/C(=C\c1ccc(O)c(O)c1)C(=O)Nc1cccc2ncccc12	1070 nM
N#C/C(=C\c1ccc(O)c(O)c1)C(=O)c1ccc(O)c(O)c1	79.5 nM
N/C(=N\N=C/c1ccc(-c2ccc(O)c(C(=O)O)c2)o1)N[N+](=O)[O-]	1550 nM
Nc1c(C(=O)NCC2CCCO2)sc2nc3c(c(-c4ccco4)c12)CC/C3=C\c1ccco1 (stereo not given)	1350 nM
O=C(O)c1ccc(NC2=C/C(=N/S(=O)(=O)c3cccs3)c3ccccc3C2=O)cc1	996 nM
COP(=O)(OC)c1ccc(NCc2cc(O)ccc2O)cc1	inactive
CC(C)(CS(=O)(=O)[O-])NC(=O)CC[N+](C)(C)CCO	3060 nM
NC1=NC(=O)/C(=C\c2ccco2)S1	3990 nM
CC1OC(OCC2OC(Oc3c(-c4ccc(O)cc4)oc4cc(O)cc(O)c4c3=O)C(O)C(O)C2O)C(O)C(O)C1O (stereo not given)	8680 nM
O=C(N/N=C/c1ccc(O)cc1O)C(=O)N/N=C/c1ccc(O)cc1O	177 nM
N#C/C(=C\c1cc(O)c(O)c(O)c1)C(N)=O	9600 nM
C[C@@H]1O[C@@H](Oc2c(-c3cc(O)c(O)c(O)c3)oc3cc(O)cc(O)c3c2=O)[C@H](O)[C@H](O)[C@H]1O	1640 nM
CC(=O)Nc1ccc2c(COC(=O)CC3Sc4ccccc4NC3=O)cc(=O)oc2c1 (stereo not given)	> 12200 nM (inactive)
Cc1cccc(N=C2NC(=O)/C(=C/C=C/c3ccco3)S2)c1C	2990 nM
C=CC1=C(C(=O)O)N2C(=O)[C@@H](NC(=O)/C(=N\OCC(=O)O)c3csc(N)n3)[C@H]2SC1	2890 nM

Compound	IC50
C[n+]1c2cc(N)ccc2cc2ccc(N)cc21	5490 nM
Brc1ccc(-c2nn3c(-c4ccco4)nnc3s2)o1	inactive
Cc1ccc(N2C(=O)NC(=O)/C(=C/c3ccoc3)C2=O)cc1	2000 nM
CC(=O)c1ccc(NC(=O)CSc2nnc(-c3ccco3)c(-c3ccco3)n2)cc1	6380 nM
O=c1c2cc(O)c(O)cc2oc2cc(O)c(C3OC(CO)C(O)C(O)C3O)c(O)c12 (stereo not given)	1740 nM
C/C(=N/NC(=O)c1cc(O)c(O)c(O)c1)c1ccc([N+](=O)[O-])cc1	2120 nM
O=C(NCCCO)c1ccc2nc(-c3ccco3)c(-c3ccco3)nc2c1	2850 nM
COc1ccc(NS(=O)(=O)c2ccc3c(c2)[C@H]2C=CC[C@H]2[C@@H](c2ccc(C(=O)O)cc2)N3)cc1	2120 nM
Cc1csc(NC(=O)CSc2sc3c(O)cc(=O)[nH]c3c2C#N)n1	9730 nM
CCCCCn1c(NC(=O)c2ccco2)c(S(=O)(=O)c2ccc(C)cc2)c2nc3ccccc3nc21	inactive
O=S(=O)(O)c1cc(Cl)cc(N=Nc2ccc(O)cc2O)c1O	9940 nM
CN(C)c1ccc2cc(S(=O)(=O)O)cc(O)c2c1	4480 nM
c1coc(-c2ccc3nncn3c2)c1	1180 nM
Oc1ccc(/C=N/N=C(c2ccccc2)c2ccccc2)c(O)c1O	1080 nM
Oc1ccc(C=Nc2ccc(N3CCOCC3)cc2)c(O)c1	inactive
Oc1cccc(/C=N/NC(=S)Nc2cccnc2)c1O	inactive
Cn1cccc1CC(=O)NN=C/C=C\c1ccco1	> 36500 nM (inactive)
O=C(O)c1ccc(-n2c(-c3cc(-c4ccco4)[nH]n3)n[nH]c2=S)cc1	7320 nM
O=C(O)c1ccc2nc(-c3ccco3)c(-c3ccco3)nc2c1	1920 nM
O=c1c(O)c(-c2ccc(O)c(O)c2)oc2cc(O)cc(O)c12	498 nM
CC1=CC(C)(C)N2C(=O)C(=Nc3ccc(O)cc3)c3cccc1c32	> 12200 nM (inactive)
COCCN=c1scc(-c2ccco2)n1/N=C/c1ccc(O)c(O)c1O	3260 nM
NC1=CC(=O)C(=O)c2cccnc21	2140 nM
O=C(CCc1ccc(S(=O)(=O)N2CCOCC2)cc1)N/N=C/c1ccc(O)c(O)c1O	inactive
S=C(Nc1ccc(N2CCOCC2)cc1)Nc1ccc2nc(-c3ccco3)c(-c3ccco3)nc2c1	> 36500 nM (inactive)
O=C(NCc1ccco1)c1cc2ccc(O)cc2oc1=O	inactive
O=Cc1ccc2oc3nc4n(c(=O)c3c(=O)c2c1)CCCS4	1810 nM

Compound	IC50
COc1ccc(/C=N\NC(=O)c2cc(O)c(O)c(O)c2)cc1CN1CCN(c2ccc(F)cc2)CC1	> 36500 nM (inactive)
O=C(O)c1ccc(-n2cccc2/C=C2/SC(=O)N(CC(=O)N3CCCC3)C2=O)cc1	2460 nM
CC1CCCC(C)N1/N=C/c1ccc(O)c(O)c1 (stereo not given)	3370 nM
CCN=c1scc(C)n1/N=C/c1ccc(O)c(O)c1O	5610 nM
c1coc(-c2nnc(-c3ccco3)nn2)c1	1750 nM
CCOc1cccc(N2C(=O)/C(=C/c3ccco3)C(=O)NC2=S)c1	1550 nM
COc1ccc2[nH]c3c(C)c4cc[n+](C)cc4c(C)c3c2c1	5110 nM
Nc1ccc2cc3ccc(N)cc3nc2c1	4460 nM
O=c1cc(-c2ccc(O)cc2)oc2c(O)c(O)c(O)c(O)c12	341 nM
CC(=O)Nc1ccc(C(=O)/C=C/c2ccco2)cc1	9780 nM
O=C1/C(=C/C=C/c2ccco2)SC(=S)N1c1ccc(O)cc1	2660 nM
Oc1cccc(CN2CCOCC2)c1O	inactive
COc1ccc(N=C2NC(=O)/C(=C\C=C\c3ccco3)S2)cc1	8070 nM
Nc1nc(-c2ccco2)c(-c2ccco2)s1	> 36500 nM (inactive)
Oc1ccc(/C=N/N=C/c2ccc(O)c(O)c2)cc1O	191 nM
C(=C\c1ccco1)/c1ccc2ccccc2n1	> 36500 nM (inactive)
CN(CCC#N)C(=O)COC(=O)c1c2c(nc3ccccc13)/C(=C\c1ccco1)CC2	2560 nM
N#Cc1c(SCC(=O)Nc2nccs2)sc2c(O)cc(=O)[nH]c12	8630 nM
Cc1cc(C(=O)N/N=C/c2ccc(O)c([N+](=O)[O-])c2)c(C)n1-c1ccc(F)cc1	inactive
O=C(O)CC(CCc1ccccc1)OC1OC(CO)C(O)C(O)C1O (stereo not given)	620 nM
O=S(=O)(c1cc(O)ccc1O)c1cccc2c(S(=O)(=O)c3cc(O)ccc3O)cccc12	inactive
O=C1S/C(=C\C=C\c2ccco2)C(=O)N1c1ccc(O)cc1	9560 nM
O=C1/C(=C\c2ccc(O)c(O)c2)C(c2ccccc2)=NN1c1ccccc1	inactive
O=C(O)c1cc(O)c2c(c1)[C@H]([C@H]1c3cc(C(=O)O)cc(O)c3C(=O)c3c(O[C@@H]4O[C@H](CO)[C@@H](O)[C@H](O)[C@H]4O)cccc31)c1cccc(OC3O[C@H](CO)[C@@H](O)[C@H](O)[C@H]3O)c1C2=O (stereo not given in full)	1050 nM
COCCN(CCOC)Cc1c(O)ccc2c1O/C(=C\c1ccc(C)o1)C2=O	> 36500 nM (inactive)
NC(=S)NN=Cc1nccc2c(N)cccc12	> 36500 nM (inactive)
O=C1NC(=Nc2ccc(O)cc2)S/C1=C\C=C\c1ccco1	4080 nM

Compound	IC50
Oc1ccc(NCc2cccc(OCc3ccccc3)c2)cc1	> 36500 nM (inactive)
O=C(N/N=C/c1cccc(F)c1)c1cc(-c2ccco2)nc2ccccc12	3850 nM
Cc1ccc(-c2nn(-c3ccccc3)cc2/C=C2\SC(=S)N(CCCCCC(=O)O)C2=O)o1	inactive
C=CC(=O)N1C/C(=C/c2ccc(F)cc2)C(=O)/C(=C\c2ccc(F)cc2)C1	inactive
COC(=O)c1cc(O)cc(OC)c1Oc1cc(C)cc(O)c1C(=O)O	2590 nM
Oc1ccc(C[C@H]2NCCc3cc(O)c(O)cc32)cc1O	3230 nM
O=C(O)C1Nc2c(O)cccc2C2C=CCC12 (stereo not given)	754 nM
Cc1c(O)cc2c(c1O)C(=O)CC(c1ccc(O)cc1)O2 (stereo not given)	9390 nM
Cc1ccc(NC(=O)CN2C(=O)N/C(=C/c3ccco3)C2=O)cc1	> 36500 nM (inactive)
COCCCNC(=O)/C(C#N)=C/c1ccc(OCC(=O)O)c(OC)c1	5280 nM
O=C1CCCC(O)=C1N=Nc1ccc(C(=O)O)cc1	2410 nM
O=C1Nc2ccccc2/C1=N\N=C\c1ccc(O)c(O)c1	696 nM
Nc1c(C(=O)N/N=C/c2cccnc2)oc2nc(-c3ccco3)cc(-c3ccco3)c12	> 36600 nM (inactive)
CCn1c(C)nc2cc(C(=O)N/N=C/c3ccc(O)c(O)c3O)ccc21	429 nM
COc1ccc(/C=C2\C(=O)NC(=O)c3ccccc32)cc1OC	3940 nM
C[C@@H]1O[C@@H](O[C@@H]2[C@@H](O)[C@H](OCCc3ccc(O)c(O)c3)O[C@H](CO)[C@H]2OC(=O)/C=C/c2ccc(O)c(O)c2)[C@H](O)[C@H](O)[C@H]1O	1410 nM
Nc1ccc2nc3c(=O)[nH]c(=S)[nH]c3nc2c1	1360 nM
COc1ccc(NC(=O)CSc2sc3c(O)cc(=O)[nH]c3c2C#N)c(OC)c1	inactive
O=C(NN1C(=O)/C(=C/c2ccc(O)c(O)c2)SC1=S)c1ccccc1	1800 nM
O=C1C=C(O)c2c(O)cc(O)c(O)c2C1=O	742 nM
Cc1cc(-c2csc(N)n2)c(C)n1Cc1ccco1	> 36600 nM (inactive)
CN(C(=O)COC(=O)c1cc(-c2ccco2)nc2ccccc12)C1CCS(=O)(=O)C1 (stereo not given)	7420 nM
C=C(C)C(=O)Nc1cccc(C2=NOC3(C2)C[C@H](C(N)=O)N(C(=O)/C=C/C)C3)c1 (stereo not given in full)	4720 nM
Cn1c(N)c(C(=O)COC(=O)c2cc(-c3ccco3)nc3ccccc23)c(=O)n(C)c1=O	2570 nM
